Results from US20260076988A1 (The Cleveland Clinic Foundation, priority 2019, published 2026).

Experiments:
[1] = cited from earlier work
[2] = system: thoracic malignancies; conditions: cited from earlier work
[3] = system: LL3 lung cancer cells; test: Syngeneic disseminated lung cancer model (LL3, tail vein); format: in vivo, C57BL/6 mice
Excerpt: (§1) 2-sided Mann-Whitney test.
as §1, §1

[4] = system: UCK2-knockout HAP1 leukemia cells; test: Growth inhibition of UCK2-knockout HAP1 leukemia cells; format: cell-based; conditions: Homo sapiens, HAP1, read-out: GI50 (concentration for 50% growth inhibition)
Excerpt: (§2) A) DCK and UCK2 knockout (KO) were confirmed by Western blot. HAP1 leukemia cells, KO by CRISPR-Cas9. B) DCK-KO lowers dCTP and UCK2-KO lowers dTTP. Analysis of independent nucleotide extractions. Means±SD; p-values unpaired t-test, 2-sided. C) Sensitivity of Wildtype, DCK-KO and UCK2-KO HAP1 leukemia cells to Dec vs 5Aza. Means±SD of 3 independent biological replicates.
(§3) Study approvals. Bone marrow samples for research were obtained from patients with AML (Acute myeloid leukemia) with written informed consent on a study protocol approved by the Cleveland Clinic Institutional Review Board (Cleveland, Ohio). Murine experiments were approved by the Cleveland Clinic Institutional Animal Care and Use Committee (Cleveland, Ohio). Sources of cell lines and animals. […] DNMT1 Immuno-detection and quantitation: Immunohistochemistry (IHC) was performed on decalcified and formalin-fixed paraffin embedded bone marrow biopsy sections (4 μm) and on positive and negative controls (parental and DNMT1-KO HCT116 cells). […] Nuclei positive for DNMT1 were identified and quantified in high resolution, large field-of-view images per ImageIQ algorithms (Image IQ Inc., Cleveland, OH) after segmentation of images and subtraction of bone as has been previously described^4.

[5] = system: DCK-knockout HAP1 leukemia cells; test: Growth inhibition of DCK-knockout HAP1 leukemia cells; format: cell-based; conditions: Homo sapiens, HAP1, read-out: GI50 (concentration for 50% growth inhibition)
Excerpt: as §2, §3

[6] = system: patient-derived AML cells; test: Patient-derived xenotransplant (PDX) model of chemorefractory AML; conditions: for human CD45+ (hCD45+) AML cells in bone marrow: Day 45; for added benefit of ribonucleotide reductase inhibitor to THU+decitabine: dT 2 g/kg IP, hydroxyurea 100 mg/kg IP Day 1 before THU+decitabine days 2 and 3
Excerpt: NSG mice were tail-vein inoculated with patient-derived AML cells (1×10^6 cells/mouse) and randomized to (i) PBS vehicle control; (ii) CDA-inhibition by intra-peritoneal (IP) tetrahydrouridine (THU) and de novo pyrimidine synthesis inhibition by IP thymidine (dT); (iii) Dec; (iv) THU and Dec; (v) THU, Dec and dT (n=5/group). PBS, THU+dT mice were euthanized for distress on D42, and other mice were sacrificed for analysis on D63. […] C) Bone marrow human (hCD45) and murine (mCd45) myelopoiesis content. Flow-cytometry. Median±IQR. p-value Mann-Whitney test 2-sided. […] Median±IQR. p-value Mann-Whitney test 2-sided.
NSG mice were tail-vein inoculated with patient-derived AML cells (1×10^6 cells/mouse) and on Day 9 after inoculation randomized to the treatments as shown (n=7/group). Mice were euthanized if there were signs of distress. A) Experiment schema; B) Time-to-distress and euthanasia. C) Bone marrow human (hCD45) and murine (mCd45) myelopoiesis content. Femoral bones flushed after euthanasia. Measured by flow-cytometry. Median±IQR. D) Spleen weights at time-of-distress/euthanasia. Median±IQR. E) Spleens at the time-of-distress/euthanasia.
NSG mice were tail-vein inoculated with patient-derived AML cells (1×10^6 cells/mouse) and randomized to the treatments shown (n=5/group). Blood counts were obtained periodically by tail-vein phlebotomy. Mice were euthanized for signs of distress. A) Experiment schema; B) Time-to-distress. Log-rank test. […] D) Bone marrow replacement by AML. Bone marrow human and murine CD45+ cells measured by flow-cytometry (FIG. 32) after euthanasia (time-points panel B). Median±IQR. p-value Mann-Whitney test 2-sided. […] Flow cytometry (FIG. 33).
C) Percentage of human CD45+ (huCD45) positive cells in bone marrow. Flow cytometry. Median±IQR. p-value Mann-Whitney test 2-sided. 5 mice in each treatment group analyzed.
Mice were euthanized for signs of distress. A) Experiment schema; B) Time-to-distress. p-value Log-rank test. C) Bone marrow human leukemia cell burden at time-of-distress. Flow cytometry for human CD45+ cells. Median±IQR. p-value Mann-Whitney test 2-sided. […] E) Spleen weights at time-of-distress. Median±IQR. p-value Mann-Whitney test 2-sided.
NSG mice were tail-vein inoculated with patient-derived AML cells (1×10^6 cells/mouse) and on Day 5 after inoculation randomized to the treatments as shown (n=7/group). Mice were euthanized if there were signs of distress.

[7] = system: DNMT1; test: Serial patient bone marrow biopsies, DNMT1 immunohistochemistry; format: in vivo, human; conditions: 13 patients
Excerpt: (§4) Serial bone marrow biopsies from the same patient were cut onto the same slide, stained for DNMT1, and the number of DNMT1-positive nuclei was quantified objectively using ImageIQ software in 13 patients and positive/negative controls (tissue blocks of HCT116 wild-type and DNMT1-knockout cells respectively). D=days of therapy. Pre-Rx=pre-treatment; HI=hematologic improvement; CR=complete remission; SD=stable disease; Rel.=relapse. Mean±SD of ×3 image segments (cellular regions) per sample; p-value paired t-test, 2-sided. C) Expression of key pyrimidine metabolism enzymes at relapse/progression on Dec. […] Bone marrow cells aspirated pre-treatment and at relapse/progression on Dec (13 patients, median duration of therapy 175 days, range 97-922) or 5Aza (14 patients, median duration of therapy 433 days, range 61-1155) were analyzed by QRT-PCR. Mean±SD technical replicates×3. Paired t-test, 2-sided. D) Expression by Western blot of DNMT1 and key pyrimidine metabolism enzymes in Dec-resistant AML cells (THP1, K562, OCI-AML3 and MOLM13), and in parental THP1 AML cells treated with vehicle, Dec or 5-azacytidine (5Aza). Western blots.
as §3

[8] = system: parental HAP1 leukemia cells; test: Growth inhibition of parental HAP1 leukemia cells; format: cell-based; conditions: Homo sapiens, HAP1, read-out: GI50 (concentration for 50% growth inhibition)
Excerpt: as §2, §3

[9] = system: Dck, Uck2, Cda and Cad; test: F1339 cells: pyrimidine metabolism enzyme expression by QRT-PCR and Western blot; format: cell-based, murine; conditions: lung cancer cells, within 72-96 hours
Method: FIG. 2. […] F1339 p53-null cancer cells were seeded at D0 and treated with DMSO, deoxycytidine (DC, 0.5 μM), cytidine (CY, 5 μM), Dec (0.5 μM) and 5Aza (5 μM). […] Cell counts by automated counter, mean±SD. […] Gene expression by Q-PCR, median±interquartile range (IQR) (3 biological replicates), *p<0.05, **p<0.01. 2-sided Mann-Whitney test. […] Western blot.
RNA was extracted using Trizol reagent (Invitrogen) before the generation of complementary DNA using the iScript™ cDNA Synthesis Kit (Bio-rad). Quantitative PCR was run on StepOnePlus Real-Time PCR System (Applied Biosystems), using comparative Ct value method to quantify the expression of target genes in different samples. Gene expression was normalized to the housekeeping gene β-actin.
Tumor cells were lysed with RIPA lysis buffer and protein concentrations determined by BCA protein assay kit (Thermo Fisher Scientific). Samples with equal quantity (40 μg) of total protein were mixed with 4× loading buffer and 10× sample reducing reagent (Thermo Fisher Scientific), subjected to electrophoresis on a 12% (v/v) SDS-polyacrylamide gel, then transferred onto polyvinylidene fluoride membranes. After blocking with 5% dried skimmed milk, the membranes were washed three times and incubated with primary antibodies at 4° C. overnight. After washing, the membranes were further incubated with corresponding horseradish peroxidase-conjugated secondary antibodies. The membranes were then treated with Pierce™ ECL substrates (Thermo Scientific) then visualized using X-ray film.

[10] = system: DCK, UCK2, CDA and CAD; test: Patients' bone marrow enzyme expression pre-treatment vs relapse, QRT-PCR; format: in vivo, human; conditions: MDS patients' bone marrow
Excerpt: as §4
DNA isolation, reverse transcription (RT) and real-time PCR. As previously described^59. Primer sequences were:
CAD increased an average of ˜8-fold at relapse on either pro-drug, but not in all patients (FIG. 23C). The proliferation marker MKI67 increased at relapse in almost all the patients, consistent with active progression of disease (FIG. 23C).

[11] = system: AML cells (MOLM13, OCI-AML3, THP1); test: AML cell proliferation after a single dose; format: cell-based; conditions: decitabine, deoxycytidine 0.5 μM, 5-azacytidine, cytidine 5 μM
Method: A) Experiment schema. Vehicle, natural deoxycytidine (dC) 0.5 uM, natural cytidine (C) 5 uM, Dec 0.5 uM, or 5Aza 5 uM were added once to AML cells at 0 hours. B) Cell counts. By automated counter. Means±SD for 3 independent biological replicates for each cell line. C) Dec and 5Aza have opposite effects on dCTP levels. Measured by LCMS/MS 24 hrs after addition of Dec or 5Aza. Analyses of 2 or more independent nucleotide extractions from 3 different AML cells lines. Means±SD; p-values paired t-test, 1-sided. D) Gene expression 72 hours after Dec or 5Aza. Gene expression by QRT-PCR, relative to average expression in vehicle-treated controls. Means±SD for 3 independent biological replicates in each of 3 AML cell lines; p-values unpaired t-test vs vehicle, 2-sided. E) Western blot 72 hours after Dec or 5Aza. AML cells THP1, OCI-AML3 and K562. Western blots were reproduced in three independent biological replicates.

[12] = THU+dT day 42, other treatments day 63

For `Nc1ncn([C@H]2C[C@H](O)[C@@H](CO)O2)c(=O)n1` [decitabine], the “in vivo plasma half-life” value ([1]; in vivo) is listed as ~15 min, the myelosuppression ([2]; human, in vivo) is listed as “grade ¾ myelosuppression” and the sustained plasma concentration ([2]; intravenous infusion, for ~72 hours) is listed as > 40 nM. The “increase of time-to-distress over vehicle” value ([3]; treatment from day 21, Dec 0.2, THU-Dec 10/0.1, 5Aza 2, THU-5Aza 10/1 mg/kg sc 3×/wk) was “about 20 days”, the GI50 [4] was 0.1 µM and the GI50 [5] was 12 µM. For the same compound, the “median survival (time-to-distress)” value ([6]; Dec 0.2 mpk SC Day 1 and 2 each week) was 75 days, the “median survival (time-to-distress)” value ([6]; Dec 0.2 mpk SC Day 1 and 4 each week) was 60 days and the “human CD45+ (hCD45+) AML cells in bone marrow” value ([6]; Dec 0.3 mpk SC Day 1 and 2 each week) was ~26%. For the same compound, the “human CD45+ (hCD45+) AML cells in bone marrow” value ([6]; Dec 0.3 mpk SC Day 1 and 4 each week) was ~63%, the “bone marrow hCD45+” value [6, 12] was ~85% and the “bone marrow murine Cd45+ (murine hematopoiesis)” value [6, 12] was ~5%. For the same compound, the “DNMT1-depletion in bone marrow cells” value ([6]; day 63, on-therapy, flow cytometry) was ~35%, the “median survival (time-to-distress)” value ([6]; week-to-week alternation experiment (FIG. 28)) was 111 days and the “decrease of DNMT1 protein at time-of-response compared to pre-treatment” value [7] was ~50%. For the same compound, the GI50 [8] was 3 µM, the CDA upregulation [9] was ~3 fold and the UCK2 upregulation [9] was ~3 fold. For the same compound, the “decrease of DCK expression at relapse” value [10] was ~50%, the “increase of CDA expression at relapse” value [10] was ~3 fold and the “increase of UCK2 expression at relapse” value [10] was ~8 fold. The “average increase of CAD expression at relapse” value ([10]; not in all patients) was ~8 fold.
In the case of `O=C1NC(O)CCN1[C@@H]1O[C@H](CO)[C@@H](O)[C@H]1O` (stereo partly drawn) [THU, tetrahydrouridine], the “increase of oral bioavailability of decitabine and 5-azacytidine” value ([1]; addition of THU) is given as ~10 fold, the “increase of plasma half-lives of decitabine and 5-azacytidine” value ([1]; addition of THU) is given as ~10 fold and the “increase of efficacy of decitabine or 5-azacytidine by THU” value ([3]; in vivo studies of murine lung cancer) is given as ~2 fold. For the same compound, the myelosuppression ([3]; murine models of lung cancer) was “without bone marrow suppression”.
In the case of `Nc1ccn([C@@H]2O[C@H](CO)[C@@H](O)[C@H]2O)c(=O)n1` [cytidine], the AML cell proliferation [11] is reported as “did not impact proliferation”.
For `Cc1cn([C@H]2C[C@H](O)[C@@H](CO)O2)c(=O)[nH]c1=O` [dT, deoxythymidine], the “added benefit of ribonucleotide reductase inhibitor to THU+decitabine” value [6] was “did not add further to the benefit from THU”.
In the case of `NC(=O)NO` [hydroxyurea], the “added benefit of ribonucleotide reductase inhibitor to THU+decitabine” value [6] is reported as “did not add further benefit to THU+decitabine”.
For `Nc1ccn([C@H]2C[C@H](O)[C@@H](CO)O2)c(=O)n1` [deoxycytidine], the AML cell proliferation [11] was “did not impact proliferation”.
